# Reference: patent US10316049B2, “Tank-binding kinase inhibitor compounds” (Gilead Sciences, Inc., priority 2015, dated 2019)
# Tests used:
# TBK1 = biological target: T1, TBK1 (Homo sapiens, UniProt Q9UHD2); assay: TR-FRET enzymatic activity assay, TBK1; format: biochemical; further: full length recombinant TBK1 at 2.5 nM
# T1 construct: TBK1 and IKKε were expressed and purified as full length recombinant proteins; made in house
# T1 sequence (Q9UHD2 1-729): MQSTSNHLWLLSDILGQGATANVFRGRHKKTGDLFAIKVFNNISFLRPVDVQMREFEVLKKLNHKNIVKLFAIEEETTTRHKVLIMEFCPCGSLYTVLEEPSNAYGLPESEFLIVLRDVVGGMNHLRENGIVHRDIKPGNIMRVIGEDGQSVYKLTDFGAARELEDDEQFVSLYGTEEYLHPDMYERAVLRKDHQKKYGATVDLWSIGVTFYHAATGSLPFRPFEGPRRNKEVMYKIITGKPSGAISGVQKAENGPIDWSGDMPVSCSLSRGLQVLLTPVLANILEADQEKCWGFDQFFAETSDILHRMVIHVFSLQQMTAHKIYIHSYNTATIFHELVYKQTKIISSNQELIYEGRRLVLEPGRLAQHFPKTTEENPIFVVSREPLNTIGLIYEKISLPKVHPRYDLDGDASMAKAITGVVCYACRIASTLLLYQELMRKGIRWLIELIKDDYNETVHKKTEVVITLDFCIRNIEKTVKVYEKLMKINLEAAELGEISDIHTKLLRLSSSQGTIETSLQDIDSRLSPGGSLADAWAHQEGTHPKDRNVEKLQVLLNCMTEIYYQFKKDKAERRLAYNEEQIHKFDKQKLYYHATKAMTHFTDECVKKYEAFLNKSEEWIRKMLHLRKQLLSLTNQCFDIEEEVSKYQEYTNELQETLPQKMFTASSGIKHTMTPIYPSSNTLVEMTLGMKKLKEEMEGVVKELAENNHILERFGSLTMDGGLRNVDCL
# Description: (§1) Biological Assay for TBK1 and IKKε:
# (§2) Enzymatic activity of IKKε and TBK1 was measured using a homogeneous time resolved fluorescence resonance energy transfer (TR-FRET) assay that monitors enzyme dependent phosphorylation of a biotinylated serine/threonine peptide substrate. An increase in the amount of phosphorylated peptide results in an increase in TR-FRET signal. TBK1 and IKKε were expressed and purified as full length recombinant proteins. Detection reagents for the assay were purchased from Cisbio. […] After an assay reaction time of 240 minutes at 25° C., reactions were terminated with EDTA.
# (§3) Amount of phosphorylated peptide was determined by the addition of 125 nM streptavidin XL665 and europium cryptate labeled anti-phospho monoclonal antibody and the resulting TR-FRET signal was recorded on an Envision plate reader (Ex: 340 nm; Em: 615/665 nm; 100 μs delay and 200 μs read window). Data was normalized based on a positive (1 μM Staurosporine) and negative (DMSO) controls and IC50 values calculated from the fit of the dose-response curves to a four-parameter equation. All IC50 values represent geometric mean values of a minimum of four determinations. These assays generally produced results within 3-fold of the reported mean.
# IKKε = biological target: T2, IKKε (Homo sapiens, UniProt Q14164); assay: TR-FRET enzymatic activity assay, IKKε; format: biochemical; conditions: read-out: IKKϵ IC50; further: full length recombinant IKKε at 0.3 nM
# T2 construct: TBK1 and IKKε were expressed and purified as full length recombinant proteins; made in house
# T2 sequence (Q14164 1-716): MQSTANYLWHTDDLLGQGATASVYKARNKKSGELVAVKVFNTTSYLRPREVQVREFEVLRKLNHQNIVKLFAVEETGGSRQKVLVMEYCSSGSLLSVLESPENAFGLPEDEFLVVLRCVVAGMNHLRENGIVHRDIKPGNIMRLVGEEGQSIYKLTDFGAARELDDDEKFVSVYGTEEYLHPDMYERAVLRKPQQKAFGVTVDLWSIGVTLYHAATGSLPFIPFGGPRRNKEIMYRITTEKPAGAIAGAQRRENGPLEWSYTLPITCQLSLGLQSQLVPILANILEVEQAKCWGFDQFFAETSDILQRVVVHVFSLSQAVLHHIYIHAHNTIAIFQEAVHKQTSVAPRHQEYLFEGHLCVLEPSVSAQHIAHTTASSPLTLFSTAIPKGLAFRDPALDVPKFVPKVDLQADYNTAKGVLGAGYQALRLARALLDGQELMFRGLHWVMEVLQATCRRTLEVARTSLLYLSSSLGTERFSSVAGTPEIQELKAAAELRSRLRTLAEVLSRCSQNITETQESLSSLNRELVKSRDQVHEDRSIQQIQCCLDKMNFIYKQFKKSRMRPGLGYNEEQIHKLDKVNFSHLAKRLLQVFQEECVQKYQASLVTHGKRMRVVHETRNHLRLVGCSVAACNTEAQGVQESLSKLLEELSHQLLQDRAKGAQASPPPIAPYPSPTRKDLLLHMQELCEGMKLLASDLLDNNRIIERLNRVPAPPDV
# Description: as §1
# as §2, with “An increase in the amount of phosphorylated peptide results in an increase in TR-FRET signal.” left out
# as §3, with “determinations.” for “determinations. These assays generally produced results within 3-fold of the reported mean.”
SMILES,IC50 (TBK1),IC50 (IKKε)
"CC(=O)NC1C2CC1C2C(=O)Nc1cc(-c2ccc(OC3CCOCC3)c(C#N)c2)ccn1 (stereo not drawn) [Example 55, 4-acetamido-N-(4-(3-cyano-4-((tetrahydro-2H-pyran-4-yl)oxy)phenyl)pyridin-2-yl)bicyclo[1.1.1]pentane-2-carboxamide]",> 1 µM,> 1 µM
"Cc1n[nH]c(C(=O)N2CC[C@H](Oc3ccc(-c4ccnc(NC(=O)C5CC5C)c4)cc3C#N)[C@H](F)C2)n1 (stereo partly drawn) [Example 75, N-(4-(3-Cyano-4-(((3R,4S)-3-fluoro-1-(3-methyl-1H-1,2,4-triazole-5-carbonyl)piperidin-4-yl)oxy)phenyl)pyridin-2-yl)-2-methylcyclopropane-1-carboxamide]",0.0061 µM,0.0071 µM
"N#Cc1cc(-c2ccnc(NC(=O)[C@H]3C[C@@H]3c3cccnc3)c2)ccc1O[C@H]1CCN(C(=O)CO)C[C@H]1F [Example 136, (1S,2S)—N-(4-(3-cyano-4-(((3R,4S)-3-fluoro-1-(2-hydroxyacetyl)piperidin-4-yl)oxy)phenyl)pyridin-2-yl)-2-(pyridin-3-yl)cyclopropane-1-carboxamide]",0.0035 µM,0.0104 µM
"N#Cc1cc(-c2ccnc(NC(=O)C3CCCCC3)c2)ccc1OC1CCOCC1 [Example 1, N-(4-(3-cyano-4-((tetrahydro-2H-pyran-4-yl)oxy)phenyl)pyridin-2-yl)cyclohexanecarboxamide]",0.755 µM,0.331 µM
"Cn1cc([C@@H]2C[C@H]2C(=O)Nc2cc(-c3ccc(O[C@H]4CCN(C(=O)[C@@H](O)CO)CC4(F)F)c(C#N)c3)ncn2)cn1 [Example 132, (1,2-Trans)-N-(6-(3-cyano-4-(((S)-1-((S)-2,3-dihydroxypropanoyl)-3,3-difluoropiperidin-4-yl)oxy)phenyl)pyrimidin-4-yl)-2-(1-methyl-1H-pyrazol-4-yl)cyclopropane-1-carboxamide]",0.0047 µM,0.0123 µM
"N#Cc1cc(-c2ccnc(NC(=O)C3CC3)c2)ccc1N1CC[C@@H](O)C1 [Example 17, (R)—N-(4-(3-cyano-4-(3-hydroxypyrrolidin-1-yl)phenyl)pyridin-2-yl)cyclopropanecarboxamide]",0.0416 µM,0.232 µM
"N#Cc1cc(-c2ccnc(NC(=O)[C@@H]3C[C@@H]3C(N)=O)c2)ccc1O[C@H]1CCN(C(=O)CO)C[C@H]1F (stereo in doubt) [Example 82, (1,2-cis)-N1-(4-(3-cyano-4-(((3R,4S)-3-fluoro-1-(2-hydroxyacetyl)piperidin-4-yl)oxy)phenyl)pyridin-2-yl)cyclopropane-1,2-dicarboxamide]",0.607 µM,0.857 µM
"CO[C@@H]1CCN(c2ccc(-c3ccnc(NC(=O)C4CC4)c3)cc2C#N)C1 [Example 97, (R)—N-(4-(3-cyano-4-(3-methoxypyrrolidin-1-yl)phenyl)pyridin-2-yl)cyclopropanecarboxamide]",0.27 µM,0.477 µM
N#Cc1cc(-c2ccnc(NC(=O)[C@@H]3C[C@H]3c3cccnc3)c2)ccc1O[C@H]1CCN(C(=O)CO)C[C@H]1F (relative stereo) [Example 127],0.0122 µM,0.0332 µM
"N#Cc1cc(-c2ccnc(NC(=O)C3CCC3)c2)ccc1OC1CCOCC1 [Example 3, N-(4-(3-cyano-4-((tetrahydro-2H-pyran-4-yl)oxy)phenyl)pyridin-2-yl)cyclobutanecarboxamide]",0.335 µM,0.284 µM
"Cn1cc([C@H]2C[C@@H]2C(=O)Nc2cc(-c3ccc(O[C@H]4CCN(C(=O)CO)CC4(F)F)c(C#N)c3)ccn2)cn1 [Example 122, (1S, 2S)—N-(4-(3-cyano-4-(((S)-3,3-difluoro-1-(2-hydroxyacetyl)piperidin-4-yl)oxy)phenyl)pyridin-2-yl)-2-(1-methyl-1H-pyrazol-4-yl)cyclopropane-1-carboxamide]",0.006 µM,0.0049 µM
"N#Cc1cc(-c2ccnc(NC(=O)C3CC3c3ccco3)c2)ccc1OC1CCOCC1 (stereo not drawn) [Example 51, N-(4-(3-cyano-4-((tetrahydro-2H-pyran-4-yl)oxy)phenyl)pyridin-2-yl)-2-(furan-2-yl)cyclopropane-1-carboxamide]",0.0578 µM,0.426 µM
"N#Cc1cc(-c2ccnc(NC(=O)[C@@H]3C[C@H]3C(N)=O)c2)ccc1O[C@H]1CCN(C(=O)CO)C[C@H]1F [Example 85, (1,2-trans)-N-(4-(3-cyano-4-(((3R,4S)-3-fluoro-1-(2-hydroxyacetyl)piperidin-4-yl)oxy)phenyl)pyridin-2-yl)cyclopropane-1,2-dicarboxamide]",0.108 µM,0.115 µM
"N#Cc1cc(-c2ccnc(NC(=O)C3CC3)c2)ccc1N1CC[C@H](F)C1 [Example 18, (S)—N-(4-(3-cyano-4-(3-fluoropyrrolidin-1-yl)phenyl)pyridin-2-yl)cyclopropanecarboxamide]",0.0203 µM,0.0613 µM
"N#Cc1cc(-c2ccnc(NC(=O)[C@H]3[C@@H]4CNC[C@@H]43)c2)ccc1OC1CCOCC1 [Example 124, (1R,5S,6R-rel)-N-(4-(3-cyano-4-((tetrahydro-2H-pyran-4-yl)oxy)phenyl)pyridin-2-yl)-3-azabicyclo[3.1.0]hexane-6-carboxamide]",0.628 µM,0.316 µM
"Cn1cc([C@H]2C[C@@H]2C(=O)Nc2cc(-c3ccc(O[C@H]4CCN(C(=O)CO)CC4(F)F)c(C#N)c3)ncn2)cn1 [Example 138, (1S,2S)—N-(6-(3-cyano-4-(((S)-3,3-difluoro-1-(2-hydroxyacetyl)piperidin-4-yl)oxy)phenyl)pyrimidin-4-yl)-2-(1-methyl-1H-pyrazol-4-yl)cyclopropane-1-carboxamide]",0.0059 µM,
"Cn1cc([C@@H]2C[C@H]2C(=O)Nc2cc(-c3ccc(O[C@H]4CCN(C(=O)CO)CC4(F)F)c(C#N)c3)ncn2)cn1 [Example 128, (1,2-Trans)-N-(6-(3-cyano-4-(((S)-3,3-difluoro-1-(2-hydroxyacetyl)piperidin-4-yl)oxy)phenyl)pyrimidin-4-yl)-2-(1-methyl-1H-pyrazol-4-yl)cyclopropane-1-carboxamide]",0.0072 µM,
"Cn1cc([C@@H]2C[C@H]2C(=O)Nc2cc(-c3ccc(O[C@H]4CCN(C(=O)CO)CC4(F)F)c(C#N)c3)ncn2)cn1 [Example 137, (1R,2R)—N-(6-(3-cyano-4-(((S)-3,3-difluoro-1-(2-hydroxyacetyl)piperidin-4-yl)oxy)phenyl)pyrimidin-4-yl)-2-(1-methyl-1H-pyrazol-4-yl)cyclopropane-1-carboxamide]",0.0214 µM,
